Assay results from patent US20240279215A1 (Cytokinetics, Incorporated, priority 2022, published 2024).

Each compound was assayed against human NAMPT (Homo sapiens (Human), UniProt P43490) (assay: NMN fluorescence biochemical assay (human recombinant NAMPT enzyme assay)). Conditions: not given.
Method in brief: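 Activation of recombinant human NAMPT (6 nM) was tested with 2.5 mM ATP, 20 μM PRPP and 150 μM nicotinamide in 50 mM HEPES pH 7.2 for 60 min at ambient temperature. NMN was derivatized with acetophenone/KOH/formic acid and read by fluorescence (355/460 nm) after 40 min.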

Sequence of human NAMPT (P43490 whole entry): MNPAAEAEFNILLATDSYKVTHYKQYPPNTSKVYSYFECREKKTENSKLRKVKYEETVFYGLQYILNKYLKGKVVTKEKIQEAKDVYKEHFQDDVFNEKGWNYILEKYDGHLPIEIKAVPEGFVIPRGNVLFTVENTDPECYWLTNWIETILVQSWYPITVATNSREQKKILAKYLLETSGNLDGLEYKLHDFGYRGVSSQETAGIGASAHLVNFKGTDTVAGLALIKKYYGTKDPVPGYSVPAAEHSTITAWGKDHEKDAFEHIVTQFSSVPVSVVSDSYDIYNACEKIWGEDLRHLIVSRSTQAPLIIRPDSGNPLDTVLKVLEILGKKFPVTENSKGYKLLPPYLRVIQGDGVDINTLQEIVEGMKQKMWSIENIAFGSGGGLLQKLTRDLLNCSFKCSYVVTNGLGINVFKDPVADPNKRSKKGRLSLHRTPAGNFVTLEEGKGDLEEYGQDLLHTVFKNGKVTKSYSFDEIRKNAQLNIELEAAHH

Row | Compound | AC1.4 Human | EC50
1 | O=C(Nc1ccc(CN2CCC[C@@H]2c2cccnc2)cc1)OCc1ccc(CO)cc1 [Compound 5, [4-(hydroxymethyl)phenyl]methyl N-(4-{[(2R)-2-(pyridin-3-yl)pyrrolidin-1-yl]methyl}phenyl)carbamate] | 0.07 µM | 0.29 µM
2 | CN(C)S(=O)(=O)N1CCC(Cc2ccc(NC(=O)OCc3cnco3)cc2)CC12CC2 (stereo not shown) [Compound 440, oxazol-5-ylmethyl (4-((4-(N,N-dimethylsulfamoyl)-4-azaspiro[2.5]octan-7-yl)methyl)phenyl)carbamate] | 0.21 µM | 3.53 µM
3 | O=C(Nc1ccc(CC2CCN(C3COC3)C3(CC3)C2)cc1)OCc1cnco1 (stereo not shown) [Compound 441, oxazol-5-ylmethyl (4-((4-(oxetan-3-yl)-4-azaspiro[2.5]octan-7-yl)methyl)phenyl)carbamate] | 0.17 µM | 10.7 µM
4 | CN(C)C(=O)N1CCC(Cc2ccc(NC(=O)OCc3cnco3)cc2)CC12CC2 (stereo not shown) [Compound 442, oxazol-5-ylmethyl (4-((4-(dimethylcarbamoyl)-4-azaspiro[2.5]octan-7-yl)methyl)phenyl)carbamate] | 0.12 µM | 3.78 µM
5 | COC(=O)N1CCC(Cc2ccc(NC(=O)OCc3cnco3)cc2)CC12CC2 (stereo not shown) [Compound 443, methyl 7-(4-(((oxazol-5-ylmethoxy)carbonyl)amino)benzyl)-4-azaspiro[2.5]octane-4-carboxylate] | 0.22 µM | 6.45 µM
6 | CC(=O)N1CCC(Cc2ccc(NC(=O)OCc3cnco3)cc2)CC12CC2 (stereo not shown) [Compound 444, oxazol-5-ylmethyl (4-((4-acetyl-4-azaspiro[2.5]octan-7-yl)methyl)phenyl)carbamate] | 0.13 µM | 6.31 µM
7 | CC(=O)N1CC2CCC(C1)C2c1ccc(NC(=O)OCc2cnco2)cc1 (stereo not shown) [Compound 445, oxazol-5-ylmethyl (4-(3-acetyl-3-azabicyclo[3.2.1]octan-8-yl)phenyl)carbamate] | 0.56 µM | 33.5 µM
8 | CC(C)OC(=O)N1CCC(Cc2ccc(NC(=O)OCc3cnco3)cc2)CC1 [Compound 446, isopropyl 4-(4-(((oxazol-5-ylmethoxy)carbonyl)amino)benzyl)piperidine-1-carboxylate] | 0.73 µM | 19.3 µM
9 | CN(C)S(=O)(=O)N1CCC(Cc2ccc(NC(=O)OCc3cnco3)cc2F)CC1 [Compound 447, oxazol-5-ylmethyl (4-((1-(N,N-dimethylsulfamoyl)piperidin-4-yl)methyl)-3-fluorophenyl)carbamate] | 0.08 µM | 2.31 µM
10 | CS(=O)(=O)N1CCC(Cc2ccc(NC(=O)OCc3cnco3)cc2F)CC1 [Compound 448, oxazol-5-ylmethyl (3-fluoro-4-((1-(methylsulfonyl)piperidin-4-yl)methyl)phenyl)carbamate] | 0.13 µM | 4.5 µM
11 | COC(=O)N1CCC(Cc2ccc(NC(=O)OCc3cnco3)cc2F)CC1 [Compound 450, methyl 4-(2-fluoro-4-(((oxazol-5-ylmethoxy)carbonyl)amino)benzyl)piperidine-1-carboxylate] | 0.13 µM | 4.97 µM
12 | CC(=O)N1CCC(Cc2ccc(NC(=O)OCc3cnco3)cc2F)CC1 [Compound 451, oxazol-5-ylmethyl (4-((1-acetylpiperidin-4-yl)methyl)-3-fluorophenyl)carbamate] | 0.16 µM | 7.79 µM
13 | O=C(Nc1ccc(CC2CCN(C3COC3)CC2)c(F)c1)OCc1cnco1 [Compound 452, oxazol-5-ylmethyl (3-fluoro-4-((1-(oxetan-3-yl)piperidin-4-yl)methyl)phenyl)carbamate] | 0.18 µM | 13 µM
14 | CS(=O)(=O)N1CCC(Cc2ccc(NC(=O)OCc3cnco3)cc2)C2CC21 (stereo not shown) [Compound 453, oxazol-5-ylmethyl (4-((2-(methylsulfonyl)-2-azabicyclo[4.1.0]heptan-5-yl)methyl)phenyl)carbamate] | 0.35 µM | 44 µM
15 | CN(C)C(=O)N1CCC(Cc2ccc(NC(=O)OCc3cnco3)cc2)C2CC21 (stereo not shown) [Compound 454, oxazol-5-ylmethyl (4-((2-(dimethylcarbamoyl)-2-azabicyclo[4.1.0]heptan-5-yl)methyl)phenyl)carbamate] | 0.14 µM | 16.1 µM
16 | O=C(Nc1ccc(CC2CCN(C3COC3)C3CC23)cc1)OCc1cnco1 (stereo not shown) [Compound 455, oxazol-5-ylmethyl (4-((2-(oxetan-3-yl)-2-azabicyclo[4.1.0]heptan-5-yl)methyl)phenyl)carbamate] | 0.84 µM | 32.4 µM
17 | COC(=O)N1CCC(Cc2ccc(NC(=O)OCc3cnco3)cc2)C2CC21 (stereo not shown) [Compound 456, methyl 5-(4-(((oxazol-5-ylmethoxy)carbonyl)amino)benzyl)-2-azabicyclo[4.1.0]heptane-2-carboxylate] | 0.23 µM | 17.8 µM

Row | Compound | AC1.4 Human | EC50
18 | CC(=O)N1CCC(Cc2ccc(NC(=O)OCc3cnco3)cc2)C2CC21 (stereo not shown) [Compound 457, oxazol-5-ylmethyl (4-((2-acetyl-2-azabicyclo[4.1.0]heptan-5-yl)methyl)phenyl)carbamate] | 0.250 µM | 21.6 µM
19 | O=C(Nc1ccc(CC2CCN(C(=O)N3CCOCC3)CC2)cc1)OCc1cnco1 [Compound 458, oxazol-5-ylmethyl (4-((1-(morpholine-4-carbonyl)piperidin-4-yl)methyl)phenyl)carbamate] | 0.13 µM | 15.2 µM
20 | O=C(Nc1ccc(CC2CCN(S(=O)(=O)C3CCC3)CC2)cc1)OCc1cnco1 [Compound 459, oxazol-5-ylmethyl (4-((1-(cyclobutylsulfonyl)piperidin-4-yl)methyl)phenyl)carbamate] | 0.18 µM | 7.06 µM
21 | O=C(Nc1ccc(CC2CCN(S(=O)(=O)C3CC3)CC2)cc1)OCc1cnco1 [Compound 460, oxazol-5-ylmethyl (4-((1-(cyclopropylsulfonyl)piperidin-4-yl)methyl)phenyl)carbamate] | 0.24 µM | 12.2 µM
22 | O=C(Nc1ccc(CC2CCN(C(=O)N3CCCCC3)CC2)cc1)OCc1cnco1 [Compound 461, oxazol-5-ylmethyl (4-((1-(piperidine-1-carbonyl)piperidin-4-yl)methyl)phenyl)carbamate] | 0.13 µM | 9.34 µM
23 | O=C(Nc1ccc(CC2CCN(C(=O)N3CCCC3)CC2)cc1)OCc1cnco1 [Compound 462, oxazol-5-ylmethyl (4-((1-(pyrrolidine-1-carbonyl)piperidin-4-yl)methyl)phenyl)carbamate] | 0.18 µM | 13.3 µM
24 | O=C(Nc1ccc(CC2CCN(C(=O)N3CC(F)(F)C3)CC2)cc1)OCc1cnco1 [Compound 463, oxazol-5-ylmethyl (4-((1-(3,3-difluoroazetidine-1-carbonyl)piperidin-4-yl)methyl)phenyl)carbamate] | 0.42 µM | 43.6 µM
25 | O=C(Nc1ccc(CC2CCN(S(=O)(=O)N3CCC3)CC2)cc1)OCc1cnco1 [Compound 465, oxazol-5-ylmethyl (4-((1-(azetidin-1-ylsulfonyl)piperidin-4-yl)methyl)phenyl)carbamate] | 0.14 µM | 7.25 µM
26 | O=C(Nc1ccc(CC2CCN(C3COC3)CC2)cc1)OCc1cncs1 [Compound 466, thiazol-5-ylmethyl (4-((1-(oxetan-3-yl)piperidin-4-yl)methyl)phenyl)carbamate] | 1.19 µM | 14.5 µM
27 | O=C(Nc1ccc(CC2CCN(CC(F)(F)F)CC2)cc1)OCc1cncs1 [Compound 467, thiazol-5-ylmethyl (4-((1-(2,2,2-trifluoroethyl)piperidin-4-yl)methyl)phenyl)carbamate] | 1.07 µM | 14.5 µM
28 | O=C(Nc1ccc(CC2CCN(C(=O)N3CCC3)CC2)cc1)OCc1cnco1 [Compound 468, oxazol-5-ylmethyl (4-((1-(azetidine-1-carbonyl)piperidin-4-yl)methyl)phenyl)carbamate] | 0.13 µM | 14.5 µM
29 | O=C(Nc1ccc(CC2CCN(C(=O)C3CCC3)CC2)cc1)OCc1cnco1 [Compound 469, oxazol-5-ylmethyl (4-((1-(cyclobutanecarbonyl)piperidin-4-yl)methyl)phenyl)carbamate] | 0.24 µM | 26.1 µM
30 | O=C(Nc1ccc(CC2CCN(C(=O)C3CC(F)(F)C3)CC2)cc1)OCc1cnco1 [Compound 470, oxazol-5-ylmethyl (4-((1-(3,3-difluorocyclobutane-1-carbonyl)piperidin-4-yl)methyl)phenyl)carbamate] | 0.98 µM | 37.5 µM
31 | O=C(Nc1ccc(CC2CCN(CC3CCO3)CC2)cc1)OCc1cnco1 (stereo not shown) [Compound 471, oxazol-5-ylmethyl (4-((1-(oxetan-2-ylmethyl)piperidin-4-yl)methyl)phenyl)carbamate] | 0.50 µM | 15 µM
32 | CC(=O)N1CC2(CC(Cc3ccc(NC(=O)OCc4cnco4)cc3F)C2)C1 [Compound 472, oxazol-5-ylmethyl (4-((2-acetyl-2-azaspiro[3.3]heptan-6-yl)methyl)-3-fluorophenyl)carbamate] | 0.11 µM | 5.63 µM
33 | tert-butyl 4-(4-(((oxazol-5-ylmethoxy)carbonyl)amino)phenethyl)piperidine-1-carboxylate [Compound 121] | 0.97 µM | 14.5 µM

The compounds below were run on MDCK-MDR1 cells (P-gp, MDR1) (assay: MDR1-MDCK bidirectional permeability assay). Conditions: A to B.
Experimental: (§1) A bidirectional permeability assay using Madin Darby canine kidney cells expressing multi-drug resistance gene 1 (MDCK-MDR1) is routinely used to evaluate discovery compounds' BBB permeability and drug efflux toward the advancement of discovery compounds with brain penetration.
(§2) MDCK-MDR1 Cells (NIH cell line) were obtained from the National Institutes of Health. […] Cell culture medium was replaced every other day, beginning no later than 24 hours after the initial plating. […] The dosing solution concentration was 1 μM for the test article in the assay buffer. Cell monolayers were dosed on the apical side (A-to-B) or basolateral side (B-to-A) and incubated at 37° C. under an atmosphere of 5% CO2 in a humidified incubator. Samples were taken from the donor and receiver chambers at 120 minutes. Each determination was performed in duplicate. After the 120 min transport period, the flux of lucifer yellow was also measured for each monolayer to ensure no damage was inflicted to the cell monolayers during the transport period. All samples were assayed by LC-MS/MS (Waters XSelect HSS T3 C18, 2.5 m, 2.1×50 mm) using electrospray ionization with 0.1% formic acid in water (mobile phase A) and 0.1% formic acid in acetonitrile (mobile phase B) as mobile phases. The apparent permeability coefficient (Papp), in units of cm per second, was calculated for MDCK-MDR1 Cells (NIH cell line) drug transport assays using the following equation:
(§3) Where VA is the volume (in mL) in the acceptor well, Area is the surface area of the membrane (0.143 cm^2 for Transwell-96 Well Permeable Supports), and time is the total transport time in seconds.
(§4) The leakage of Lucifer Yellow (LY), in unit of percentage (%), can be calculated using the following equation:
(§5) LY leakage of <1% is acceptable to indicate the well-qualified MDCK-MDR1(NIH) monolayer.

Row | Compound | PappAB
34 | O=C(NCc1ccc(Cl)cc1)Nc1ccc(CC2CCN(C3COC3)CC2)cc1 [Comparator 1, 1-(4-chlorobenzyl)-3-(4-((1-(oxetan-3-yl)piperidin-4-yl)methyl)phenyl)urea, reference compound] | 1.85
35 | O=C(Nc1ccc(CN2CCC[C@@H]2c2cccnc2)cc1)OCc1ccc(CO)cc1 [Compound 5, [4-(hydroxymethyl)phenyl]methyl N-(4-{[(2R)-2-(pyridin-3-yl)pyrrolidin-1-yl]methyl}phenyl)carbamate] | 5.32

Each compound was assayed on P-gp (MDR1) (assay: MDR1-MDCK bidirectional permeability assay). Conditions: dog, MDCK-MDR1, pH 7.4, Efflux ratio.
Experimental: as §1, §2, §3, §4, §5

Row | Compound | efflux ratio at 120 min, 1 μM
36 | O=C(NCc1ccc(Cl)cc1)Nc1ccc(CC2CCN(C3COC3)CC2)cc1 [Comparator 1, 1-(4-chlorobenzyl)-3-(4-((1-(oxetan-3-yl)piperidin-4-yl)methyl)phenyl)urea, reference compound] | 14.7
37 | O=C(Nc1ccc(CN2CCC[C@@H]2c2cccnc2)cc1)OCc1ccc(CO)cc1 [Compound 5, [4-(hydroxymethyl)phenyl]methyl N-(4-{[(2R)-2-(pyridin-3-yl)pyrrolidin-1-yl]methyl}phenyl)carbamate] | 7.02
